# Measurements as given in patent publication US20110112463A1, “COMPOSITIONS AND METHODS FOR TREATING A NEURONAL INJURY OR NEURONAL DISORDERS” (priority 2009, published 2011).
# “Also recorded” adds a separate entry of the source.
# System: NMDA receptors
# Assay: NMDA receptor blockade with MK-801 before intermittent photostimulation of ChR2 animals, diaphragmatic EMG
# Type: in vivo, Sprague Dawley rats
# Excerpt: Four days after C2 hemisection and/or virus injection, the animals were anesthetized as above and prepared for light treatment and physiological recordings. In a room where all light was eliminated except for that needed to accomplish the surgical procedures, approximately an eight cm incision was made at the base of the ribcage to expose the abdominal surface of the diaphragm. Bipolar electrodes, connected to an amplifier and data acquisition set-up (CED 1401/Spike2 Data Analysis Computer Interface, Cambridge Electronic Design), were inserted into both left and right hemidiaphragms to record diaphragmatic activity. After this, the cervical area of the spinal cord was reopened again for exposure to photostimulation at a wavelength of 475 nm, i.e., blue light. The light source was a portable unit capable of producing light at various wavelengths through a fiber optic cable (Model Lambda DG-4, Sutter Instrument). Diaphragmatic motor activity was recorded before, during, and after stimulation. During recording, the animals were placed on a circulating warm water blanket to maintain body temperature. The initial protocol used for photostimulation included sustained exposure (1 min) of the C3-C6 spinal cord from the light source, as well as, intermittent exposure to light at about once per second for 1 min. […] This protocol was adapted from the long-term facilitation induction protocol of 5 min normoxia followed by 5 min hypoxia (Fuller et al., 2003; Golder and Mitchell, 2005). The intermittent stimulation consisted of light exposure at 0.5 Hz, with each flash of light 1 s long.
# To block NMDA receptors, 500 μl of 10 μM MK-801 (Sigma), a noncompetitive NMDA receptor antagonist, diluted in PBS, was applied to the exposed spinal cord. MK-801 was administered after 5 min of baseline recording. Recording with MK-801 continued for 5 more minutes before intermittent photostimulation and thereafter as described above.
# After recording, the raw diaphragmatic EMG signal was rectified and integrated using Spike2 software. Frequency was determined by counting total breaths for 5 min before and after photostimulation. Peak amplitude and burst duration of inspiratory bursts were measured through Spike2, for at least 25 breaths before and after stimulation. Poststimulation analyses of ChR2 animals were made during regular patterned respiratory related diaphragmatic EMG activity. All values were standardized to prestimulation measures. Statistical analysis was performed using ANOVA and Tukey's post hoc analysis. All values with a p value <0.05 were considered significant. All error bars indicate SEs.
smiles,measurement,setting,value
C[C@]12N[C@H](Cc3ccccc31)c1ccccc12 [MK-801],effect on light-induced change in diaphragmatic EMG activity,"500 μl of 10 μM MK-801 in PBS on exposed C3-C6 spinal cord, ipsilateral and contralateral",failed to elicit any kind of change in diaphragmatic EMG activity; also recorded: eliminated cycling of increasing diaphragmatic EMG activity
same,animals in which intermittent photostimulation failed to elicit any change in EMG activity,500 μl of 10 μM MK-801 on exposed C3-C6 spinal cord,four of six
same,frequency of breaths before and after stimulation,FIG. 4A,no change
same,effect on photostimulation-induced increase of peak EMG amplitude during inspiratory bursts,"FIG. 4B, brought back to control levels",abolished
same,effect on photostimulation-induced increase in duration of EMG inspiratory bursts,"FIG. 4C, brought back to control levels",attenuated
